From patent publication US20140018288A1, “X-DING-CD4 Peptide” (priority 2012, published 2014)

B1: X-DING-CD4: native form of X-DING-CD4 protein purified from the extracellular compartment of HIV-1 resistant T-cells, about 40 kDa (protein, listed as Homo sapiens)
chain: MADINGGGATLPQPLYQTSGVLTAGFAPYIGVGSGKGKLAFLNNDYSQFGTGTKNVHWAGSDSKLTSTELSTYASTKQAAWGKLIQVPSVATSVAIPFNKAGSNAVDLSVDQLCGVFSGRITTWNQLPATGRTGNIVVVYRNEASGTTELFTRFLTAKCVNESKKFVVTTNFADSFGVPAGAVPAVTSQGVMTKLNAGDGRITYMSPDYAAPTLAGLDDATKVAKVAGVSPAPDNVSAAIAAVPVPAAANVALQNAWVPVFAAAADANDPSVVPYPSTGFPILGFTNLIFSQ

Assays:
[1] = tested on: cellular uptake of X-DING-CD4 protein; assay: Cellular uptake of X-DING-CD4 protein tested by RSA in 1G5 cells treated with uptake inhibitors; format: cell-based
Procedure: Cellular uptake of X-DING-CD4 protein was tested by RSA in 1G5 cells treated with chemicals affecting: (i) clatrin mediated endocytosis—[…] (CPZ); (ii) endocytosis—cytochalasin D (CCD) and chloroquine (CQ) or (iii) macropinocytosis—dimethyl amiloride (DMA). Untreated group referred to the experimental system where X-DING-CD4 mediated inhibition of transcription was measured without cellular exposure to chemicals.

HIV-1 LTR promoter = assay: Rapid Suppression Assay (RSA), PMA-induced HIV-1 LTR-driven luciferase in 1G5 cells; format: cell-based; conditions: for IC50: 1G5 cells, PMA 5 ng/ml, read-out: IC50, HIV-1 LTR promoter inhibition; for IC50, HIV-1 LTR promoter inhibition, mass concentration: Table 1
Excerpt: We applied the cell based Rapid Suppression Assay (RSA) for testing X-DING-CD4-induced inhibition of HIV-1 LTR promoter (Lesner et al., 2004; Lesner et al., 2005). Briefly, 1 G5 cells (obtained through the NIH AIDS Research and Reagent Program, Division of AIDS, NIAID, NIH) that are stably transfected with an inducible luciferase gene driven by HIV-1 LTR (Aguilar-Cordova et al., 1994) were washed in PBS, resuspended in hybridoma medium to concentration of 5×10^6cells/ml. For purpose of generating control titration curves, 100 μl aliquots of 1G5 cells were mixed with 100 μl cell culture medium either supplemented with various amount of rX-DING-CD4^pep (SEQ ID No: 1) or no rX-DING-CD4^pep, and incubated for three hours at 37° C. Subsequently, all cells were induced with phorbol 12-myristate 13-acetate (PMA) at a concentration of 5 ng/ml. Two control tubes containing 1G5 cells without rX-DING-CD4^pep treatment were resuspended in hybridoma medium with or without PMA. Three hours later cells were collected by centrifugation and lysed in the same tubes using Reporter Lysis buffer (Promega). The expression levels of luciferase protein in the lysates were determined according to the manufacturer's protocol. The X-DING-CD4^pep inhibition values were established based on the formula: [(LUC1-LUC0)×100/Z]−100; where LUC1 is the value obtained from cells induced by PMA and treated with a specific dilution of X-DING-CD4^pep; and LUC0 is the basal value obtained from the uninduced and untreated cells; Z is the absolute luciferase induction by PMA calculated as Z=LUCmax-LUCO3 where LUCmax is the value of 100% luciferase expression in PMA induced X-DING-CD4^pep untreated cells.
One aspect of the present invention is related to X-DING-CD4 peptide derivatives. Here we obtained 15 derivatives SED ID NOS: 1-15 by recombination or in vitro synthesis. We tested the biological activity of some these derivatives by rapid suppression assay (RSA). In XD-4M, the third amino acid glycine in the native X-DING-CD4 peptide was substituted with the polar amino acid glutamine. In XD-7, the two amino acids, cysteine and valine, replaced the three amino acids, glycine, serine and aspartic acid, in the native X-DING-CD4 peptide. In XD-12 and XD-12sh, the 69th amino acid glutamic acid in the native X-DING-CD4 peptide was methylated. In XD-9, the 69th amino acid glutamic acid in the native X-DING-CD4 peptide was substituted with the amino acid glutamine. The RSA procedure was similar to that described in Example 2. The inhibitory values are plotted in FIG. 5.
We performed the rapid suppression assay (RSA) which tests directly the inhibition of HIV-1 transcription (similar to the procedure described in Example 2), the MAGI assay which tests the inhibition of HIV-1 replication in a single cycle infection (similar to the procedure described in Example 2), and the HIV-1 infection inhibition assay in human PBLs.

[2] = Acute toxicity after intraperitoneal injection in mice; format: in vivo, mice (B6/SJL); conditions: 1-50 μg rX-DING-CD4^pep or 50 μg nX-DING-CD4, 7 days
Procedure: In the animal tests, eight-week old wild-type mice (B6/SJL) with both genders in each test group were injected intraperitoneally with 1-50 μg of rX-DING-CD4^pep or 50 μg nX-DING-CD4. The nX-DING-CD4 refers to the native form of X-DING-CD4 protein that was purified through IXC chromatography from the extracellular compartment of HIV-1 resistant T-cells. The rX-DING-CD4^pep refers to therapeutic X-DING-CD4 peptide that was expressed in E. coli and purified through Ni-affinity column. Toxicity was assessed by obvious symptoms including diarrhea, ruffled fur, abnormal gait, or loss of more than 10% weight. Animals were weighted before injection and then observed every hour for the first 10 hours after injection; then animals were weighted on 1, 3, 4 and 7 days after X-DING-CD4 administration. […] In its highest administered dose (50 μg—corresponding to 2 μg/G) we exceeded therapeutic dose blocking 95% of HIV promoter activity (by RSA assays) and 90% virus replication (by MAGI assays) (See FIGS. 2 & 3 in Example 2).

X-DING-CD4 mRNA = assay: Induction of X-DING-CD4 mRNA expression in 1G5 cells (qRT-PCR); format: cell-based; conditions: 6 hours, 200 ng/ml
Procedure: The sX-DING-CD4 may be released from the macropinosome to endoplasmic reticulum (ER) and cause induction of IFNα, which in turn induces the expression of X-DING-CD4 mRNA and endogenous X-DING-CD4 protein (step 2). The induction of X-DING-CD4 mRNA by sX-DING-CD4 was tested in 1G5 cells. Briefly, three groups of 1G5 cells were treated for 6 hours with NL4-3 HIV-1 at MOI of 0.1, 200 ng/ml native X-DING-CD4 protein, and 1-126 rX-DING-CD4 peptide (i.e., rX-DING-CD4^pep), respectively. […] The eX-DING-CD4, derived from the newly synthesized X-DING-CD4, binds CN and is transported into the nucleus where it blocks LTR transcription (steps 2-7).
Two peptide fragments from the N-terminal region of X-DING-CD4 were synthesized and their activities in inducing IFN-α and X-DING-CD4 mRNA expressions were determined by qRT-PCR. The concentration of proteins used in the assays was 200 ng/ml except for the combination of XD-1 and XD-4 where we used 100 ng/ml of each peptide. The 1-126 rX-DING-CD4 and peptide C3 p16 served as positive and negative controls, respectively. The C3 Peptide P16 was derived from the C3d component of serum complement. C3 Peptide P16 regulates B cells, but not T cells, through interacting with the gp140 C3d receptor (CR2).

NL4-3 HIV-1 isolate [3] = assay: HIV-1 infection inhibition assay in human PBLs, intracellular p24 core antigen ELISA; format: cell-based; conditions: 1 μg/ml protein, seven days after infection
Procedure: In addition, we measured the inhibitory activities of these four proteins in HIV-1-infected peripheral blood lymphocytes (PBLs). The cells are treated separately with the proteins and the replication of virus was measured five and seven days later by assessing the intracellular levels of p24 core protein. PBLs were obtained by elutriation from the whole blood of healthy, HIV-1 negative volunteers. Before the experiment, cells were stimulated for 2 days in Dulbecco's modified Eagle medium (DMEM) supplemented with 10% fetal bovine serum (FBS), phytohemaglutinin (PHA, 5 μg/ml; Sigma), interleukin 2 (10 U/ml; R&D Systems), antibiotics and glutamate. Subsequently, cells were cultured without PHA. Briefly, 3×10^6 PBLs/well in a 24-well plate (Costar Scientific) were cultured in 1 ml RPMI medium supplemented with antibiotics, glutamate and 1 μg/ml of each protein, respectively. Six hours after the initial exposure to the protein treatments, the culture medium was supplemented with 3%/Vol FBS. […] Replication of virus was evaluated at five and seven days after infection by Elisa assay of the intracellular HIV-1 p24 core antigen (Perkin Elmer). The viability of cells was assessed by the dye exclusion method (Strober, 2001) at 1, 2, 3, 5 and 7 days after protein treatments.

NL4-3 HIV-1 isolate [4] = assay: MAGI assay of HIV-1 replication in MAGI-CCR-5 cells; format: cell-based; conditions: DING family proteins, FIG. 16B
Procedure: The antiviral activity of rX-DING-CD4^pep was tested by MAGI assay. […] Subsequently, cells were exposed to rX-DING-CD4^pep treatment in the presence of DMEM supplemented with 5% fetal bovine serum, antibiotics, glutamate and […] DEAE dextran. […] Replication of virus was evaluated forty eight hours later after fixation of cells with 1% formaldehyde and 0.2% glutaraldehyde in PBS. Expression of β-galactosidase was visualized by 50 min exposure to X-GAL (5-bromo-4-chloro-3-indolyl-β-D-galactopyranoside), 0.4 mg/ml 2 mM MgCl2, 4 mM potassium ferricyanide at 37° C. After enumeration of the infected (blue) cells, all cells were lysed and subjected to the protein assay (Bio-Rad). All data were adjusted by total protein concentration and anti-viral activity was calculated as percent inhibition. The infected untreated and uninfected cells served as (+) and (−) controls to calculate 100% virus infectivity. The inhibition values for HIV-1 replication were calculated based on the formula [(R1−R0)×100/Z]-100; where R1 is the value obtained from cells infected by HIV-1 and treated with specific dilution of X-DING-CD4^pep and R^0 is the basal value obtained from the uninfected and untreated cells; Z is the absolute HIV-1 replication value calculated as Z═Rmax−R0, where Rmax is the value representing 100% of HIV-1 replication in X-DING-CD4^pep untreated cells.

Row | Molecule | IC50 (HIV-1 LTR promoter; RSA) [nM] | IC50, HIV-1 LTR promoter inhibition, mass concentration (HIV-1 LTR promoter; RSA) | other results
1 | C=C1[C@@H](C)[C@H]2[C@H](Cc3ccccc3)NC(=O)[C@]23[C@H](OC(C)=O)/C=C/[C@@](C)(O)C(=O)[C@@H](C)C/C=C/[C@H]3[C@@H]1O [CCD, cytochalasin D] |  |  | effect of uptake inhibitor on sX-DING-CD4 inhibition of LTR transcription [1]: still demonstrated inhibitory effects of sX-DING-CD4 on LTR transcription
2 | CN(C)CCCN1c2ccccc2Sc2ccc(Cl)cc21 [CPZ, Chromopromazine] |  |  | effect of uptake inhibitor on sX-DING-CD4 inhibition of LTR transcription [1]: still demonstrated inhibitory effects of sX-DING-CD4 on LTR transcription
3 | CCN(CC)CCCC(C)Nc1ccnc2cc(Cl)ccc12 (stereo not shown) [CQ, chloroquine] |  |  | effect of uptake inhibitor on sX-DING-CD4 inhibition of LTR transcription [1]: still demonstrated inhibitory effects of sX-DING-CD4 on LTR transcription
4 | CN(C)c1nc(N)c(C(=O)N=C(N)N)nc1Cl [DMA, dimethyl amiloride] |  |  | effect of uptake inhibitor on sX-DING-CD4 inhibition of LTR transcription [1]: abolished the inhibitory effect of sX-DING-CD4 on LTR transcription
5 | DINGGGATLPQK [XD-1] | 51.2 | (60 ng/ml) | 
6 | DINGGQTLPQK [XD-4M] | 57 | (66.9 ng/ml) | 
7 | GTKNVHWACVSKLTSTELSTY [XD-7] | 29.8 | (69.3 ng/ml) | 
8 | GTKNVHWAGSDSKLTSTELSTYC [XD-5] | 35.8 | (88.7 ng/ml) | 
9 | GVSNKNVHWAGSDSKLTAT [XD-14] | 36.8 | (72.5 ng/ml) | 
10 | GVSNKNVHWAGSDSKLTATE(OMe)LSTY [XD-12] | 33.7 | (86.2 ng/ml) | 
11 | GVSNKNVHWAGSDSKLTATLLSTY [XD-15] | 36.7 | (93.5 ng/ml) | 
12 | GVSNKNVHWAGSDSKLTATQLSTY [XD-13] | 30.2 | (77.5 ng/ml) | 
13 | KNVHWAGSDSKLTSTELSTY [XD-4] | 31 | (70 ng/ml) | 
14 | LLSTY [XD-15sh] | 157 | (93.5 ng/ml) | 
15 | QLSTY [XD-13sh] | 121 | (74 ng/ml) | 
16 | YTSLE [XD-12sh, YTSLE(OMe)] | 121 | (74 ng/ml) | 
17 | B1 |  |  | obvious symptoms of toxicity (diarrhea, ruffled fur, abnormal gait) [2]: Neither of rX-DING-CD4^pep treatment nor nX-DING-CD4 treatment caused any obvious symptoms; expression of X-DING-CD4 mRNA (X-DING-CD4 mRNA): induced expression of X-DING-CD4 mRNA; IC50 RSA (HIV-1 LTR promoter; DING family proteins): 0.052 µg/mL; HIV-1 LTR IC50 (HIV-1 LTR promoter; RSA, DING family proteins, FIG. 16A): 0.052 µg/mL; reduction of HIV-1 replication (p24) (NL4-3 HIV-1 isolate [3]): about 11 fold; IC50, HIV-1 replication (MAGI) (NL4-3 HIV-1 isolate [4]): 0.075 µg/mL
